Test results reported in article PMC11714206, “Massively Parallel Screening of Toll/Interleukin‐1 Receptor (TIR)‐Derived Peptides Reveals Multiple Toll‐Like Receptors (TLRs)‐Targeting Immunomodulatory Peptides” (Advanced Science, 2024).
Where “and” joins values, the source holds several entries; their conditions need not be identical. Equal entries are not always repeated. Blank lines part the entries; values can stand above or below the substance they belong to.

Target: T1, MAL^TIR (Homo sapiens, UniProt P58753)
T1 construct: MAL (residues 79–221); 6xHis; made in house; host or cells: E. coli BL21 (DE3)
Assay: T‐Surf phage library (P8 and P3) selection against MAL^TIR, four rounds, NGS read counts
Type: binding
Conditions: for P8_MAL Rank (after) / P8_MAL Rank (before): P8 library; for P3_MAL Rank (after) / P3_MAL Rank (before): P3 library; for Population: 4th round of selection against MAL TIR, share of NGS reads
Description: T‐Surf libraries were screened against the immobilized TIR domains of two major human TLR adaptor proteins, MAL^TIR and MyD88^TIR, allowing cross‐species selection of TIR‐binding motifs with 190 946 TIR‐derived peptides in a single binding assay (Scheme 1). Enriched phage pools from the fourth round of selection were analyzed using NGS after barcoding the peptide‐coding regions of the phage pools.
Phage display screening was performed by coating two wells of a 96‐well plate (Maxisorp, Thermo Fisher Scientific) with 100 µL of 5 µg mL^−1 TIR domains overnight; then, the coated wells were blocked with 200 µL of blocking buffer (0.2% BSA in PBS) and set aside for 1 h at 4 °C with gentle shaking. Next, 100 µL of the phage library was added to the wells and incubated for 1 h at room temperature (RT; 20 – 22 °C) with gentle shaking. The plate was washed four times with PBS containing 0.5% Tween‐20; the bound phages were eluted by adding 100 µL of 100 mM HCl to each well. The elute was neutralized with 10 µL of 1.0 M Tris‐HCl (pH 11.0). E. coli TG1 cells were grown to the log phase (A600 = ≈0.6), and 1 mL of the culture was incubated with 100 µL of the eluted phages for 30 min at 37 °C, with shaking at 200 rpm. Next, 1 µL of M13KO7 helper phages was added, followed by incubation for 45 min at 37 °C, with shaking. Subsequently, the cells were transferred to 25 mL of 2× yeast extract tryptone/carbenicillin/kanamycin medium and incubated overnight at 37 °C with shaking at 200 rpm. The amplified phages were precipitated with 20% PEG‐8000/2.5 M NaCl to be used for the next round of selection.
The naïve T‐Surf libraries in P8 and P3 and the enriched phage pools after four rounds were barcoded for NGS as previously described.^[ [59] ^] Briefly, 5 µL of the phage pool was used as a template for 20 cycles of a 50 µL PCR reaction using […] each of forward and reverse barcoded primers and PrimeSTAR Max DNA Polymerase. The PCR products were purified using Expin Gel SV (GeneAll). The NGS samples were quantified using qPCR, following the qPCR Quantification Protocol Guide (KAPA Library Quantification kits for Illumina Sequencing Platform), and qualified using the TapeStation High Sensitivity D1000 ScreenTape (Agilent Technologies). The indexed libraries were further sequenced by Macrogen (Seoul, Republic of Korea) using the NovaSeq platform (Illumina) with 100 bp paired‐end reads. The reads were demultiplexed by barcodes and filtered for an average Phred quality score of at least 30, followed by trimming the flanking consensus sequences using Cutadapt (version 2.3). Peptide sequence populations were analyzed according to the read counts.

[1] = selection against MAL, rank by count after grouping
[2] = selection against MAL, rank by count before grouping
[3] = 4R selection against MAL, rank after grouping
[4] = 4R selection against MAL, rank before grouping
[5] = P8_MAL: rank by count after grouping
[6] = P8_MAL: rank by count before grouping
[7] = P8_MAL pool: P8 T-Surf phage library
[8] = selection against MAL TIR, rank by count after grouping
[9] = selection against MAL TIR, rank by count before grouping
[10] = selection against MAL, rank after grouping
[11] = selection against MAL, rank before grouping
[12] = P3_MAL pool: P3 T-Surf phage library
[13] = P3_MAL: rank by count after grouping
[14] = P3_MAL: rank by count before grouping

T1 sequence (P58753 79-221): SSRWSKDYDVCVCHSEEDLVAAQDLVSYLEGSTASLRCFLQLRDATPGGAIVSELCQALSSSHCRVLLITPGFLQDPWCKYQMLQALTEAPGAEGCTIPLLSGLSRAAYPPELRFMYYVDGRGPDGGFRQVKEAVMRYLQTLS

P8_MAL Rank (after) [1]: 719 | P8_MAL Rank (before) [2]: 2147
Substance: LFLWESLKHLLRSDSL

P8_MAL Rank (after) [3]: 632 | P8_MAL Rank (before) [4]: 2423
Substance: HFWWIPLKSILGETSF

P3_MAL Rank (after) [3]: 609 | P3_MAL Rank (before) [4]: 2638
Substance: PESGKLASGAGKSGQT

Rank (after) [5]: 402 | Rank (before) [6]: 2546
Substance: TFLCHLYSTLVQARIH

P8_MAL Rank (after) [1]: 711 | P8_MAL Rank (before) [2]: 1142
Substance: WFYDRIVSLNGRDKQV

Population [7]: 0.00402% and 0.00278%
Substance: *FYERLVSLILRDTKV

P8_MAL Rank (after) [3]: 607 | P8_MAL Rank (before) [4]: 1280
Substance: WFYERLVRLILRDNKV

Rank (after) [5]: 396 | Rank (before) [6]: 1372
Substance: WFIIKFRTVLDRVNDV

P3_MAL Rank (after) [8]: 246 | P3_MAL Rank (before) [9]: 3130
Substance: SSFRDGLWRLPELSKK

Population [7]: 0.0034%
Substance: RSFVAYLFQALANKGI

Rank (after) [5]: 388 | Rank (before) [6]: 2536
Substance: TFLGPLLNALVQAGIH

P8_MAL Rank (after) [10]: 524 | P8_MAL Rank (before) [11]: 2534
Substance: TFLGAQHKTVVRAATH

P3_MAL Rank (after) [1]: 718 | P3_MAL Rank (before) [2]: 1894
Substance: DWFLSKLSQHSLKLEK

P3_MAL Rank (after) [10]: 529 | P3_MAL Rank (before) [11]: 3531
Substance: KGLTEIADLKGKKCDR

P8_MAL Rank (after) [8]: 218 | P8_MAL Rank (before) [9]: 926
Substance: RWFLDELVKIMERKRT

P3_MAL Rank (after) [10]: 564 | P3_MAL Rank (before) [11]: 3384
Substance: NQWRNALTAAAKLSGG

P8_MAL Rank (after) [8]: 250 | P8_MAL Rank (before) [9]: 1179
Substance: WFYERLVILVLRDTKG

Rank (after) [5]: 179 | Rank (before) [6]: 1232
Substance: WFYERLVSHMLRDTKV

P3_MAL Rank (after) [10]: 495 | P3_MAL Rank (before) [11]: 3097
Substance: SLRKNLLSNLIEECKR

Population [12]: 0.00639% | Rank (after) [13]: 107 | Rank (before) [14]: 124
Substance: NQWRNALTKVANLV

P3_MAL Rank (after) [3]: 665 | P3_MAL Rank (before) [4]: 3633
Substance: KRISEQLRPALNVRRP

P8_MAL Rank (after) [1]: 678 | P8_MAL Rank (before) [2]: 2634
Substance: TFHSHLYNALVQAGIH

P3_MAL Rank (after) [8]: 222 | P3_MAL Rank (before) [9]: 801
Substance: EWIREQLRRSSQSIAN

Rank (after) [13]: 481 | Rank (before) [14]: 1908
Substance: DWCLSKLSQHTLKREK

P3_MAL Rank (after) [10]: 514 | P3_MAL Rank (before) [11]: 1393
Substance: YAFTGHLHRYLVQRFA

P3_MAL Rank (after) [3]: 595 | P3_MAL Rank (before) [4]: 2071
Substance: ESILNQRRPSSQSIAN

P3_MAL Rank (after) [3]: 641 | P3_MAL Rank (before) [4]: 3329
Substance: NQCSNALTGAAILSGW

Population [12]: 0.00676%
Substance: YAFTGHLHRYLVQLGV

P3_MAL Rank (after) [1]: 744 | P3_MAL Rank (before) [2]: 2310
Substance: LKEESWRQAQEKAGKL

P8_MAL Rank (after) [3]: 613 | P8_MAL Rank (before) [4]: 1676
Substance: AFFWEQLRTVLRTPTL

P8_MAL Rank (after) [1]: 717 | P8_MAL Rank (before) [2]: 1982
Substance: DLLNGFIALKSTVIEN

P3_MAL Rank (after) [10]: 545 | P3_MAL Rank (before) [11]: 3495
Substance: KWFWDKLIYALSRIR

Rank (after) [5]: 126 | Rank (before) [6]: 1889
Substance: AFLYTFMINLTHPTTF

P3_MAL Rank (after) [1]: 770 | P3_MAL Rank (before) [2]: 2080
Substance: EKIVEWVWEKAHNRFK

Rank (after) [5]: 135 | Rank (before) [6]: 2614
Substance: TFLGNLYNALVKAGIH

Rank (after) [13]: 437 | Rank (before) [14]: 2995
Substance: SFFWNKLRYALTYRPAT

P3_MAL Rank (after) [10]: 493 | P3_MAL Rank (before) [11]: 2562
Substance: RPLKWKEALHQFHSRV

Rank (after) [5]: 413 | Rank (before) [6]: 1436
Substance: SFLHFLLFSRPDTEYI

P3_MAL Rank (after) [8]: 277 | P3_MAL Rank (before) [9]: 739
Substance: YAFTGHLHRYHLPAPQH

Population [7]: 0.0034%
Substance: AFLYTFLINLTHQTNF

P8_MAL Rank (after) [10]: 514 | P8_MAL Rank (before) [11]: 1851
Substance: AFLYTFLINLTHPTKV

P8_MAL Rank (after) [8]: 233 | P8_MAL Rank (before) [9]: 1601
Substance: AFFWAHLKSVLGKPTM

P8_MAL Rank (after) [3]: 604 | P8_MAL Rank (before) [4]: 2263
Substance: RNNFLGYLYQALYRIG
